BigSolDB 2.1

## CCOc1cc(C=O)ccc1O
In acetone, 273.15 K
  solubility (mole fraction): 0.199
In acetone, 278.15 K
  solubility (mole fraction): 0.216
In acetone, 283.15 K
  solubility (mole fraction): 0.237
In acetone, 288.15 K
  solubility (mole fraction): 0.271
In acetone, 293.15 K
  solubility (mole fraction): 0.3
In acetone, 298.15 K
  solubility (mole fraction): 0.33
In acetone, 303.15 K
  solubility (mole fraction): 0.369
In acetone, 308.15 K
  solubility (mole fraction): 0.416
In acetone, 313.15 K
  solubility (mole fraction): 0.459
In ethanol, 273.15 K
  solubility (mole fraction): 0.0564
In ethanol, 278.15 K
  solubility (mole fraction): 0.0721
In ethanol, 283.15 K
  solubility (mole fraction): 0.0911
In ethanol, 288.15 K
  solubility (mole fraction): 0.109
In ethanol, 293.15 K
  solubility (mole fraction): 0.141
In ethanol, 298.15 K
  solubility (mole fraction): 0.183
In ethanol, 303.15 K
  solubility (mole fraction): 0.224
In ethanol, 308.15 K
  solubility (mole fraction): 0.283
In ethanol, 313.15 K
  solubility (mole fraction): 0.34
In isopropanol, 273.15 K
  solubility (mole fraction): 0.0336
In isopropanol, 278.15 K
  solubility (mole fraction): 0.0433
In isopropanol, 283.15 K
  solubility (mole fraction): 0.0552
In isopropanol, 288.15 K
  solubility (mole fraction): 0.072
In isopropanol, 293.15 K
  solubility (mole fraction): 0.0957
In isopropanol, 298.15 K
  solubility (mole fraction): 0.124
In isopropanol, 303.15 K
  solubility (mole fraction): 0.166
In isopropanol, 308.15 K
  solubility (mole fraction): 0.221
In isopropanol, 313.15 K
  solubility (mole fraction): 0.294
In methanol, 273.15 K
  solubility (mole fraction): 0.0867
In methanol, 278.15 K
  solubility (mole fraction): 0.114
In methanol, 283.15 K
  solubility (mole fraction): 0.147
In methanol, 288.15 K
  solubility (mole fraction): 0.181
In methanol, 293.15 K
  solubility (mole fraction): 0.214
In methanol, 298.15 K
  solubility (mole fraction): 0.257
In methanol, 303.15 K
  solubility (mole fraction): 0.307
In methanol, 308.15 K
  solubility (mole fraction): 0.358
In methanol, 313.15 K
  solubility (mole fraction): 0.418
